“And” between values parts separate entries of the source, which are not always exact repeats. Equal values may be shown once. “Also recorded” adds a separate entry of the source. Read-outs that look alike come from different tables or passages of the source.
Tests used:
Fat Metabolism in Mice = assay: Determination of ketonuria in mice (urine ketone bodies, Ketostix strips); format: in vivo; set-up: key to Ketone level: —: No detectable levels of Ketone in the urine; Trace amount of Ketone (6 mg/dL) in the urine; Small amount of Ketone (15 mg/dL) in the urine; details: week 23; for Ketone level: urine of individual mice; for Average Ketone levels: urine
Method: In a preliminary in vivo experiment, four groups of mice (each group including three or four mice of same genetic background) were tested for levels of ketone bodies in their urine after consumption of the high fat and/or high cholesterol rodent chow diet supplemented with or without at least on biocompatible emulsifier. In this study, all mice in all groups (all being eight weeks old when this study commenced) were fed with high fat/high cholesterol chow diet (Catalog No. 12079B from Research Diets) for eight weeks. Starting at week 9, the diet of all mice was switched to low fat chow (AIN-76A Rodent Diet from Research Diets). For 15 weeks thereafter, the control mice of group A were fed with pure low fat chow while the mice in treated groups, B, C and D, were fed with low fat chow supplemented with at least one biocompatible emulsifier as follow: Group B mice were fed with low fat chow supplemented with 0.5% Hyodeoxycholic acid (HDCA) and 1.25% D-Limonene (DLM). Group C mice were fed with low fat chow supplemented with 5% DLM. Group D mice were fed with low fat chow supplemented with 1.25% HDCA.
At week 23 of the experiment, urine samples from each mice were taken and analyzed for ketone body levels using Ketostix® stips.

[1] = drug compared with placebo; cited from earlier work
[2] = wild-type mice provided dietary HDCA; cited from earlier work
[3] = test system: C57BL/6 LDL r-KO knockout mice; details: HDCA fed, relative to mice not provided HDCA; cited from earlier work
[4] = taken orally, cited from earlier work
[5] = Escape of oral HDCA from the entero-hepatic circulation into the systemic circulation; format: in vivo, human; details: 750 mg/day dose, average adult person weighing 70 kg, assuming about 70% enters systemic circulation
Text: (§1) It is know in the art that when hyodeoxycholic acid (a hydrophilic bile acid) is taken orally, it is absorbed through the gut and reaches the liver, but then a large fraction of it, up to 70%, escapes the entero-hepatic circulation, and enters the systemic circulation. See Salvioli et al., European Journal of Clinical Investigation, Vol. 18(1), pp. 22-28 (February 1988). Therefore, the induction of ketonuria is an indication that HDCA upon becoming bioavailable the systemic circulation is able to induce dissolution of the body fat.
(§2) Considering that about 70% of HDCA escapes the entero-hepatic pathway and enters into the systemic blood circulation, the 750 mg/day dose of HDCA averages to concentration of about 270 μM in the blood of an average adult person weighing 70 kg, as compared to normal levels of bile salts in the blood which are less than 10 μM. Some embodiments described herein are effective to mimic the high levels of bile salts observed as safe in Example 2, and in so doing are effective to result in the treatment of obesity.

Fat Metabolism In Human = assay: Ketonuria in an individual taking oral HDCA (weekly Ketostix testing); format: in vivo; details: 250 mg orally three times a day (750 mg/day), 10 weeks, no caloric restriction, one individual
Text: as §1, §2
An in vivo experiment was performed to assess the effectiveness of HDCA in causing fat catabolism and treating obesity in human. In this experiment, an overweight individual otherwise healthy took 250 mg of HDCA three times a day (750 mg/day) for a period of 10 weeks without caloric restriction.

[6] = low fat chow + 5% DLM (Group C)
[7] = low fat chow + 1.25% HDCA (Group D)

For `C=C(C)[C@H]1CC=C(C)CC1` [DLM, D-Limonene], the Ketone level (Fat Metabolism in Mice; [6]) was “— and T (Trace amount of Ketone (6 mg/dL) in the urine) (2×) and S (Small amount of Ketone (15 mg/dL) in the urine)” and the “Average Ketone levels” value (Fat Metabolism in Mice; [6]) was 42.
In the case of `CCN[C@@H](C)Cc1cccc(C(F)(F)F)c1` [dexfenfluramine], the Weight loss [1] is listed as “about 5 % of body weight”.
For `CC(C)(N)Cc1ccccc1` [phentermine], the Weight loss [1] is given as “about 5 % of body weight”.
For `CCCCCCCCCCC[C@@H](C[C@@H]1OC(=O)[C@H]1CCCCCC)OC(=O)[C@H](CC(C)C)NC=O` [orlistat], the Weight loss [1] is given as “about 5 % of body weight”.
For `CC(C)CC(N(C)C)C1(c2ccc(Cl)cc2)CCC1` (centres unmarked) [sibutramine], the Weight loss [1] is given as “about 5 % of body weight”.
For `C[C@H](CCC(=O)O)[C@H]1CC[C@H]2[C@@H]3C[C@H](O)[C@@H]4C[C@H](O)CC[C@]4(C)[C@H]3CC[C@]12C` [HDCA, hyodeoxycholic acid], the Plasma levels [2] is given as “up to 50 μM”, the “Rate of formation of atherosclerotic plaque” value [3] is given as “reduced rate of formation of atherosclerotic plaque” and the “Fraction escaping the entero-hepatic circulation and entering the systemic circulation” value [4] is given as “about 70%”. The “Fraction escaping the entero-hepatic circulation and entering the systemic circulation” value ([4]; listed as hyodeoxycholic acid) was “up to 70%”, the Ketone level (Fat Metabolism in Mice; [7]) was “— and T (Trace amount of Ketone (6 mg/dL) in the urine) and S (Small amount of Ketone (15 mg/dL) in the urine)” and the “Average Ketone levels” value (Fat Metabolism in Mice; [7]) was 100. The “Average concentration in the blood” value [5] was “about 270 μM” and the “Ketonuria / ketotic state” value (Fat Metabolism In Human) was “mild ketonuria; also recorded: mild ketotic state”.
